From US20240124417A1, “COMPOUNDS USEFUL AS IMMUNOMODULATORS” (Bristol-Myers Squibb Company, priority 2019, published 2024)

Target: T1, PD-1/PD-L1 (Homo sapiens, UniProt Q9NZQ7)
T1 construct: TVMV protease site linker (C); made in house; host or cells: HEK293T cells
Assay: PD-1/PD-L1 Homogenous Time-Resolved Fluorescence (HTRF) binding assay
Details: PD-L1-His 10 nM, PD-1-Ig 20 nM
Excerpt: The ability of the compounds of the invention to bind to PD-L1 was investigated using a PD-1/PD-L1 Homogenous Time-Resolved Fluorescence (HTRF) binding assay.
Homogenous Time-Resolved Fluorescence (HTRF) binding assay.
The interaction of PD-1 and PD-L1 can be assessed using soluble, purified preparations of the extracellular domains of the two proteins. The PD-1 and PD-L1 protein extracellular domains were expressed as fusion proteins with detection tags, for PD-1, the tag was the Fc portion of Immunoglobulin (PD-1-Ig) and for PD-L1 it was the 6 histidine motif (PD-L1-His). All binding studies were performed in an HTRF assay buffer consisting of dPBS supplemented with 0.1% […] bovine serum albumin and 0.05% (v/v) Tween-20. For the h/PD-L1-His binding assay, inhibitors were pre-incubated with PD-L1-His (10 nM final) for 15 m in 4 μl of assay buffer, followed by addition of PD-1-Ig (20 nM final) in 1 μl of assay buffer and further incubation for 15 m. HTRF detection was achieved using europium crypate-labeled anti-Ig (1 nM final) and allophycocyanin (APC) labeled anti-His (20 nM final). Antibodies were diluted in HTRF detection buffer and 5 μl was dispensed on top of the binding reaction. […] Additional binding assays were established between the human proteins PD-1-Ig/PD-L2-His (20 & 5 nM, respectively) and CD80-His/PD-L1-Ig (100 & 10 nM, respectively). […]

T1 sequence (Q9NZQ7 18-239): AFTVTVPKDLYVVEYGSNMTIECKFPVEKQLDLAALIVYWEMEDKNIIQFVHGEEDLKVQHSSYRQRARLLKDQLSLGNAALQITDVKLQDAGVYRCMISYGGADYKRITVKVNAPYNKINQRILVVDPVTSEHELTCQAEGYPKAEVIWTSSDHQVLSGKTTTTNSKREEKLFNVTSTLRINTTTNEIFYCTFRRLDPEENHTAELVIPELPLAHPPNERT

Question: Which IC50 does the source give for `Cc1c(COc2cc(OCc3cncc(C#N)c3)c(CNCc3cn[nH]n3)cc2Cl)cccc1-c1cccc(OCC2CCCN(CCC(F)(F)F)C2)c1Cl` (stereo not shown) [Example 2068, 5-((2-((((2H-1,2,3-triazol-4-yl)methyl)amino)methyl)-4-chloro-5-((2′-chloro-2-methyl-3′-((1-(3,3,3-trifluoropropyl)piperidin-3-yl)methoxy)-[1,1′-biphenyl]-3-yl)methoxy)phenoxy)methyl)nicotinonitrile] here?
Answer: 89.6 nM

Question: `Cc1c(COc2cc(OCc3cncc(C#N)c3)c(CNCCc3cc[nH]n3)cc2Cl)cccc1-c1cccc(OCC2CCCN(C)C2)c1Cl` (stereo not shown) [Example 2582, 5-((2-(((2-(1H-pyrazol-3-yl)ethyl)amino)methyl)-4-chloro-5-((2′-chloro-2-methyl-3′-((1-methylpiperidin-3-yl)methoxy)-[1,1′-biphenyl]-3-yl)methoxy)phenoxy)methyl)nicotinonitrile] was tested. Which IC50 did it give?
Answer: 3.7 nM

Question: With `Cc1c(COc2cc(OCc3cncnc3)c(CNCc3ncc[nH]3)cc2Cl)cccc1-c1cccc(OCCCN2CC[C@@H](O)C2)c1C` [Example 2050, (R)-1-(3-((3′-((4-((((1H-imidazol-2-yl)methyl)amino)methyl)-2-chloro-5-(pyrimidin-5-ylmethoxy)phenoxy)methyl)-2,2′-dimethyl-[1,1′-biphenyl]-3-yl)oxy)propyl)pyrrolidin-3-ol] as the compound, how does the IC50 read?
Answer: 1.7 nM

Question: How did the IC50 turn out when `Cc1c(COc2cc(OCc3cncc(C#N)c3)c(CN(C)Cc3nn(C)c4ccccc34)cc2Cl)cccc1-c1cccc(OCCCN2CC[C@@H](O)C2)c1C` [Example 2562, (R)-5-((4-chloro-5-((3′-(3-(3-hydroxypyrrolidin-1-yl)propoxy)-2,2′-dimethyl-[1,1′-biphenyl]-3-yl)methoxy)-2-((methyl((1-methyl-1H-indazol-3-yl)methyl)amino)methyl)phenoxy)methyl)nicotinonitrile] was run?
Answer: 9.5 nM

Question: `Cc1c(COc2cc(OCc3cncc(C#N)c3)c(CNC3CCc4[nH]ncc4C3)cc2Cl)cccc1-c1cccc(OCC2CCCN(C)C2)c1Cl` (stereo not shown) [Example 2601, 5-((4-chloro-5-((2′-chloro-2-methyl-3′-((1-methylpiperidin-3-yl)methoxy)-[1,1′-biphenyl]-3-yl)methoxy)-2-(((4,5,6,7-tetrahydro-1H-indazol-5-yl)amino)methyl)phenoxy)methyl)nicotinonitrile] was tested. Which IC50 did it give?
Answer: 0.6 nM

Question: Which IC50 does the source give for `Cc1c(COc2cc(OCc3cncc(C#N)c3)c(CN(C)Cc3ncn[nH]3)cc2Cl)cccc1-c1cccc(OCCCN2CC[C@@H](O)C2)c1C` [Example 2006, (R)-5-((2-((((1H-1,2,4-triazol-5-yl)methyl)(methyl)amino)methyl)-4-chloro-5-((3′-(3-(3-hydroxypyrrolidin-1-yl)propoxy)-2,2′-dimethyl-[1,1′-biphenyl]-3-yl)methoxy)phenoxy)methyl)nicotinonitrile] here?
Answer: 0.2 nM

Question: How did the IC50 turn out when `Cc1c(COc2cc(OCc3cncc(C#N)c3)c(CN(C)Cc3ncn[nH]3)cc2Cl)cccc1-c1cccc(OCCCN2CCC(O)(CO)CC2)c1Cl` [Example 2013, 5-((2-((((1H-1,2,4-triazol-5-yl)methyl)(methyl)amino)methyl)-4-chloro-5-((2′-chloro-3′-(3-(4-hydroxy-4-(hydroxymethyl)piperidin-1-yl)propoxy)-2-methyl-[1,1′-biphenyl]-3-yl)methoxy)phenoxy)methyl)nicotinonitrile] was run?
Answer: 1.1 nM

Question: For `Cc1c(COc2cc(OCc3cncc(C#N)c3)c(CNCc3nnn[nH]3)cc2Cl)cccc1-c1cccc(OCCCN2CC[C@@H](O)C2)c1C` [Example 1002, (R)-5-((2-((((1H-Tetrazol-5-yl)methyl)amino)methyl)-4-chloro-5-((3′-(3-(3-hydroxy-pyrrolidin-1-yl)propoxy)-2,2′-dimethyl-[1,1′-biphenyl]-3-yl)methoxy)phenoxy)methyl)-nicotinonitrile], which IC50 is on record?
Answer: 2.9 nM

Question: With `Cc1c(COc2cc(OCc3cncc(C#N)c3)c(CNCc3ncco3)cc2Cl)cccc1-c1cccc(OCCCN2CC[C@@H](O)C2)c1C` [Example 2546, (R)-5-((4-chloro-5-((3′-(3-(3-hydroxypyrrolidin-1-yl)propoxy)-2,2′-dimethyl-[1,1′-biphenyl]-3-yl)methoxy)-2-(((oxazol-2-ylmethyl)amino)methyl)phenoxy)methyl)nicotinonitrile] as the compound, how does the IC50 read?
Answer: 1.8 nM

Question: With `Cc1c(COc2cc(OCc3cncc(C#N)c3)c(CNCc3c[nH]cn3)cc2Cl)cccc1-c1cccc(OCCCN2CC[C@@H](O)C2)c1C` [Example 2003, (R)-5-((2-((((1H-imidazol-4-yl)methyl)amino)methyl)-4-chloro-5-((3′-(3-(3-hydroxypyrrolidin-1-yl)propoxy)-2,2′-dimethyl-[1,1′-biphenyl]-3-yl)methoxy)phenoxy)methyl)nicotinonitrile] as the compound, how does the IC50 read?
Answer: 7.2 nM

Question: How did the IC50 turn out when `Cc1c(COc2cc(OCc3cncc(C#N)c3)c(CN3CCCCC3c3cn[nH]c3)cc2Cl)cccc1-c1cccc(OCC2CCCN(C)C2)c1Cl` (stereo not shown) [Example 1020, 5-((2-((2-(1H-Pyrazol-4-yl)piperidin-1-yl)methyl)-4-chloro-5-((2′-chloro-2-methyl-3′-((1-methylpiperidin-3-yl)methoxy)-[1,1′-biphenyl]-3-yl)methoxy)phenoxy)methyl)-nicotinonitrile] was run?
Answer: 2.8 nM

Question: Which IC50 does the source give for `Cc1c(COc2cc(OCc3cncc(C#N)c3)c(CNCCc3nnnn3C)cc2Cl)cccc1-c1cccc(OCCCN2CC[C@@H](O)C2)c1C` [Example 1014, (R)-5-((4-Chloro-5-((3′-(3-(3-hydroxypyrrolidin-1-yl)propoxy)-2,2′-dimethyl-[1,1′-biphenyl]-3-yl)methoxy)-2-(((2-(1-methyl-1H-tetrazol-5-yl)ethyl)amino)methyl)-phenoxy)methyl)nicotinonitrile] here?
Answer: 2.9 nM

Question: For `Cc1c(COc2cc(OCc3cncc(C#N)c3)c(CN3CCCCC3c3ncc[nH]3)cc2Cl)cccc1-c1cccc(OCCCN2CC[C@@H](O)C2)c1C` (stereo partly drawn) [Example 1009, 5-((2-((2-(1H-Imidazol-2-yl)piperidin-1-yl)methyl)-4-chloro-5-((3′-(3-((R)-3-hydroxy-pyrrolidin-1-yl)propoxy)-2,2′-dimethyl-[1,1′-biphenyl]-3-yl)methoxy)phenoxy)methyl)-nicotinonitrile], which IC50 is on record?
Answer: 0.5 nM

Question: For `Cc1c(COc2cc(OCc3cncc(C#N)c3)c(CN(C)Cc3csc(N)n3)cc2Cl)cccc1-c1cccc(OCCCN2CC[C@@H](O)C2)c1C` [Example 2521, (R)-5-((2-((((2-aminothiazol-4-yl)methyl)(methyl)amino)methyl)-4-chloro-5-((3′-(3-(3-hydroxypyrrolidin-1-yl)propoxy)-2,2′-dimethyl-[1,1′-biphenyl]-3-yl)methoxy)phenoxy)methyl)nicotinonitrile], which IC50 is on record?
Answer: 0.7 nM

Question: Which IC50 does the source give for `Cc1c(COc2cc(OCc3cncc(C#N)c3)c(CN(C)Cc3cnc[nH]3)cc2Cl)cccc1-c1cccc(OC2CCN(C)CC2)c1Cl` [Example 2049, 5-((2-((((1H-imidazol-5-yl)methyl)(methyl)amino)methyl)-4-chloro-5-((2′-chloro-2-methyl-3′-((1-methylpiperidin-4-yl)oxy)-[1,1′-biphenyl]-3-yl)methoxy)phenoxy)methyl)nicotinonitrile] here?
Answer: 1.6 nM

Question: With `CC(=O)NC1CCN(CCCOc2cccc(-c3cccc(COc4cc(OCc5cncc(C#N)c5)c(CNC(C)c5nnn[nH]5)cc4Cl)c3C)c2C)CC1` (stereo not shown) [Example 1043, N-(1-(3-((3′-((4-(((1-(1H-Tetrazol-5-yl)ethyl)amino)methyl)-2-chloro-5-((5-cyanopyridin-3-yl)methoxy)phenoxy)methyl)-2,2′-dimethyl-[1,1′-biphenyl]-3-yl)oxy)propyl)piperidin-4-yl)acetamide] as the compound, how does the IC50 read?
Answer: 3.1 nM

Question: With `Cc1cc(CN(C)Cc2cc(Cl)c(OCc3cccc(-c4cccc(OCCCN5CC[C@@H](O)C5)c4C)c3C)cc2OCc2cncc(C#N)c2)[nH]n1` [Example 2025, (R)-5-((4-chloro-5-((3′-(3-(3-hydroxypyrrolidin-1-yl)propoxy)-2,2′-dimethyl-[1,1′-biphenyl]-3-yl)methoxy)-2-((methyl((3-methyl-1H-pyrazol-5-yl)methyl)amino)methyl)phenoxy)methyl)nicotinonitrile] as the compound, how does the IC50 read?
Answer: 1.6 nM

Question: How did the IC50 turn out when `Cc1c(COc2cc(OCc3cncc(C#N)c3)c(CN(C)C(C)c3nnn[nH]3)cc2Cl)cccc1-c1cccc(OCCCN2CC[C@@H](O)C2)c1C` (stereo partly drawn) [Example 1005, 5-((2-(((1-(1H-Tetrazol-5-yl)ethyl)(methyl)amino)methyl)-4-chloro-5-((3′-(3-((R)-3-hydroxypyrrolidin-1-yl)propoxy)-2,2′-dimethyl-[1,1′-biphenyl]-3-yl)methoxy)phenoxy)methyl)nicotinonitrile] was run?
Answer: 2.3 nM

Question: `CC(=O)NC1CCN(CCCOc2cccc(-c3cccc(COc4cc(OCc5cncc(C#N)c5)c(CN5CCCC(c6nnc[nH]6)C5)cc4Cl)c3C)c2C)CC1` (stereo not shown) [Example 1039, N-(1-(3-((3′-((4-((3-(4H-1,2,4-Triazol-3-yl)piperidin-1-yl)methyl)-2-chloro-5-((5-cyano-pyridin-3-yl)methoxy)phenoxy)methyl)-2,2′-dimethyl-[1,1′-biphenyl]-3-yl)oxy)propyl)-piperidin-4-yl)acetamide] was tested. Which IC50 did it give?
Answer: 2.7 nM
